Measured values from patent publication US20120028888A1, “APJ RECEPTOR COMPOUNDS” (priority 2008, published 2012).
Non-standard residues stand in square brackets, D forms with d. Residues, ends and D or L forms follow the SMILES beside them. ξ: configuration not given here. *: point of attachment. Palmitoyl = CCCCCCCCCCCCCCCC(=O)*; X1 = CCCCCCCCCCCOCCCC(=O)*; ξR = N=C(N)NCCCC(N)C(=O)O

molecular target: T1, Gi-coupled receptor APJ (HEK cells stably expressing the APJ receptor) (Homo sapiens, UniProt P35414); assay: HTRF cAMP assay: inhibition of NKH477 stimulated increase in cAMP; assay type: cell-based; settings: read-out: EC50 value (nM), SEM
T1 construct: expressed in transfected cells; host or cells: HEK cells stably expressing APJ
T1 sequence (P35414 1-380): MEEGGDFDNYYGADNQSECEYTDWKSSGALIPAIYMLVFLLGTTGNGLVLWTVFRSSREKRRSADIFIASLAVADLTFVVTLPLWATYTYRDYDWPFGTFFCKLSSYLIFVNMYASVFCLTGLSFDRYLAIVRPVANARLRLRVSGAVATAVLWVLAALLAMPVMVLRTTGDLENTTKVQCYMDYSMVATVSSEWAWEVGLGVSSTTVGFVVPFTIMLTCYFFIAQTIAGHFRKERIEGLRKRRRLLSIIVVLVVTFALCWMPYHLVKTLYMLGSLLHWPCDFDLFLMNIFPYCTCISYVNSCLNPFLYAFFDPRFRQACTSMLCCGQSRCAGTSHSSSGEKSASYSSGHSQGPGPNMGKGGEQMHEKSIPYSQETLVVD
Source text: HTRF (homogeneous time resolved fluorescence) is a technology developed by Cisbio Bioassays based on TR-FRET (time-resolved fluorescence resonance energy transfer). Cisbio Bioassays has developed a wide selection of HTRF-based assays compatible with whole cells, thereby enabling functional assays to run under more physiological conditions. The IP-One assays are competitive immunoassays using cryptate-labeled anti-IPI monoclonal antibody and d2-labeled IP1. IP1 is a relatively stable downstream metabolite of IP3, and accumulates in cells following Gq receptor activation.
cAMP kits based on a competitive immunoassay using cryptate-labeled anti-cAMP antibody and d2-labeled cAMP were used to assay the effects of APJ compounds of the present invention. This assay measures the increase in intracellular cAMP upon Gs-coupled receptor activation as well as decrease in forskolin (or a more soluble version of forskolin—NKH477) stimulated increase in cAMP upon Gi-coupled receptor activation.

EC50 [nM] | SMILES
1 to 500 | CCCCCCCCCCCOCCCC(=O)N[C@H](C(=O)N[C@H](C(=O)N[C@@H](Cc1ccccc1)C(=O)N[C@@H](CCCNC(=N)N)C(=O)N[C@@H](CO)C(=O)N[C@@H](CO)C(=O)N[C@@H](CCCNC(=N)N)C(=O)N[C@@H](CCC(=O)O)C(=O)N[C@@H](CCCCN)C(=O)N[C@@H](CCCNC(=N)N)C(=O)N[C@@H](CCCNC(=N)N)C(=O)N[C@@H](CO)C(=O)N[C@@H](C)C(=O)N[C@@H](CC(=O)O)C(=O)N[C@H](C(=O)N[C@@H](Cc1ccccc1)C(=O)N[C@H](C(N)=O)[C@@H](C)CC)[C@@H](C)CC)C(C)C)[C@@H](C)O [Compound 60] (X1-TVFRSSREKRRSADIFI-NH2)
1 to 500 | CCCCCCCCCCCCCCCC(=O)N[C@H](C(=O)N[C@H](C(=O)N[C@@H](Cc1ccccc1)C(=O)N[C@@H](CCCNC(=N)N)C(=O)N[C@@H](CO)C(=O)N[C@@H](CO)C(=O)N[C@@H](CCCNC(=N)N)C(=O)N[C@@H](CCC(=O)O)C(=O)N[C@@H](CCCCN)C(=O)N[C@@H](CCCNC(=N)N)C(=O)N[C@@H](CCCNC(=N)N)C(=O)N[C@@H](CO)C(=O)N[C@@H](C)C(=O)N[C@@H](CC(=O)O)C(=O)N[C@H](C(=O)N[C@@H](C)C(=O)N[C@H](C(N)=O)[C@@H](C)CC)[C@@H](C)CC)C(C)C)[C@@H](C)O [Compound 39] (Palmitoyl-TVFRSSREKRRSADIAI-NH2)
> 10000 | CCCCCCCCCCCCCCCC(=O)N[C@H](C(=O)N[C@H](C(=O)N[C@@H](CCCNC(=N)N)C(=O)N1CCC[C@H]1C(=O)N[C@H](C(=O)N[C@@H](C)C(=O)N[C@@H](CC(N)=O)C(=O)N[C@@H](C)C(=O)N[C@@H](CCCNC(=N)N)C(=O)N[C@@H](CC(C)C)C(=O)N[C@@H](CCCNC(=N)N)C(=O)N[C@@H](CC(C)C)C(=O)N[C@@H](CCCNC(=N)N)C(=O)N[C@H](C(=O)N[C@@H](CO)C(=O)NCC(N)=O)C(C)C)C(C)C)C(C)C)[C@@H](C)CC [Compound 77] (Palmitoyl-IVRPVANARLRLRVSG-NH2)
1000 to 5000 | CCCCCCCCCCCCCCCC(=O)N[C@H](C(=O)N[C@H](C(=O)N[C@@H](Cc1ccccc1)C(=O)N[C@@H](C)C(=O)N[C@@H](CO)C(=O)N[C@@H](CO)C(=O)N[C@@H](CCCNC(=N)N)C(=O)N[C@@H](CCC(=O)O)C(=O)N[C@@H](CCCCN)C(=O)N[C@@H](CCCNC(=N)N)C(=O)N[C@@H](CCCNC(=N)N)C(=O)N[C@@H](CO)C(=O)N[C@@H](C)C(=O)N[C@@H](CC(=O)O)C(=O)N[C@H](C(=O)N[C@@H](Cc1ccccc1)C(=O)N[C@H](C(N)=O)[C@@H](C)CC)[C@@H](C)CC)C(C)C)[C@@H](C)O [Compound 24] (Palmitoyl-TVFASSREKRRSADIFI-NH2)
1000 to 5000 | CCCCCCCCCCCCCCCC(=O)N[C@H](C(=O)N[C@@H](CO)C(=O)N[C@@H](CO)C(=O)N[C@@H](CCCNC(=N)N)C(=O)N[C@@H](CCC(=O)O)C(=O)N[C@@H](CCCCN)C(=O)N[C@@H](CCCNC(=N)N)C(=O)N[C@@H](CCCNC(=N)N)C(=O)N[C@@H](CO)C(=O)N[C@@H](C)C(=O)N[C@@H](CC(=O)O)C(=O)N[C@H](C(=O)N[C@@H](Cc1ccccc1)C(=O)N[C@H](C(N)=O)[C@@H](C)CC)[C@@H](C)CC)C(C)C [Compound 25] (Palmitoyl-VSSREKRRSADIFI-NH2)
> 10000 | CCCCCCCCCCCCCCCC(=O)N[C@H](C(=O)N[C@@H](CCCNC(=N)N)C(=O)N1CCC[C@H]1C(=O)N[C@H](C(=O)N[C@@H](C)C(=O)N[C@@H](CC(N)=O)C(=O)N[C@@H](C)C(=O)N[C@@H](CCCNC(=N)N)C(=O)N[C@@H](CC(C)C)C(=O)NC(CCCNC(=N)N)C(N)=O)C(C)C)C(C)C (stereo partly drawn) [Compound 80] (Palmitoyl-VRPVANARL[ξR]-NH2)
> 10000 | CCCCCCCCCCCCCCCC(=O)N[C@@H](C)C(=O)N[C@H](C(=O)N[C@H](C(=O)N[C@@H](CCCNC(=N)N)C(=O)N1CCC[C@H]1C(=O)N[C@H](C(=O)N[C@@H](C)C(=O)N[C@@H](CC(N)=O)C(=O)N[C@@H](C)C(=O)N[C@@H](CCCNC(=N)N)C(=O)N[C@@H](CC(C)C)C(=O)N[C@@H](CCCNC(=N)N)C(=O)N[C@@H](CC(C)C)C(=O)N[C@@H](CCCNC(=N)N)C(=O)N[C@H](C(=O)N[C@@H](CO)C(=O)NCC(N)=O)C(C)C)C(C)C)C(C)C)[C@@H](C)CC [Compound 78] (Palmitoyl-AIVRPVANARLRLRVSG-NH2)
1 to 500 | CCCCCCCCCCCCCCCC(=O)N[C@H](C(=O)N[C@@H](C)C(=O)N[C@@H](Cc1ccccc1)C(=O)N[C@@H](CCCNC(=N)N)C(=O)N[C@@H](CO)C(=O)N[C@@H](CO)C(=O)N[C@@H](CCCNC(=N)N)C(=O)N[C@@H](CCC(=O)O)C(=O)N[C@@H](CCCCN)C(=O)N[C@@H](CCCNC(=N)N)C(=O)N[C@@H](CCCNC(=N)N)C(=O)N[C@@H](CO)C(=O)N[C@@H](C)C(=O)N[C@@H](CC(=O)O)C(=O)N[C@H](C(=O)N[C@@H](Cc1ccccc1)C(=O)N[C@H](C(N)=O)[C@@H](C)CC)[C@@H](C)CC)[C@@H](C)O [Compound 22] (Palmitoyl-TAFRSSREKRRSADIFI-NH2)
1 to 500 | CCCCCCCCCCCCCCCC(=O)N[C@@H](Cc1ccccc1)C(=O)N[C@@H](CCCNC(=N)N)C(=O)N[C@@H](CO)C(=O)N[C@@H](CO)C(=O)N[C@@H](CCCNC(=N)N)C(=O)N[C@@H](CCC(=O)O)C(=O)N[C@@H](CCCCN)C(=O)N[C@@H](CCCNC(=N)N)C(=O)N[C@@H](CCCNC(=N)N)C(=O)N[C@@H](CO)C(=O)N[C@@H](C)C(=O)N[C@@H](CC(=O)O)C(=O)N[C@H](C(=O)N[C@@H](Cc1ccccc1)C(=O)N[C@H](C(N)=O)[C@@H](C)CC)[C@@H](C)CC [Compound 11] (Palmitoyl-FRSSREKRRSADIFI-NH2)
> 10000 | CCCCCCCCCCCCCCCC(=O)N[C@@H](CCCNC(=N)N)C(=O)N1CCC[C@H]1C(=O)N[C@H](C(=O)N[C@@H](C)C(=O)N[C@@H](CC(N)=O)C(=O)N[C@@H](C)C(=O)N[C@@H](CCCNC(=N)N)C(=O)N[C@@H](CC(C)C)C(=O)N[C@@H](CCCNC(=N)N)C(=O)N[C@@H](CC(C)C)C(=O)N[C@@H](CCCNC(=N)N)C(=O)N[C@H](C(=O)N[C@@H](CO)C(=O)NCC(N)=O)C(C)C)C(C)C [Compound 75] (Palmitoyl-RPVANARLRLRVSG-NH2)
501 to 1000 | CCCCCCCCCCCCCCCC(=O)N[C@H](C(=O)N[C@H](C(=O)N[C@@H](Cc1ccccc1)C(=O)N[C@@H](CCCNC(=N)N)C(=O)N[C@@H](C)C(=O)N[C@@H](CO)C(=O)N[C@@H](CCCNC(=N)N)C(=O)N[C@@H](CCC(=O)O)C(=O)N[C@@H](CCCCN)C(=O)N[C@@H](CCCNC(=N)N)C(=O)N[C@@H](CCCNC(=N)N)C(=O)N[C@@H](CO)C(=O)N[C@@H](C)C(=O)N[C@@H](CC(=O)O)C(=O)N[C@H](C(=O)N[C@@H](Cc1ccccc1)C(=O)N[C@H](C(N)=O)[C@@H](C)CC)[C@@H](C)CC)C(C)C)[C@@H](C)O [Compound 27] (Palmitoyl-TVFRASREKRRSADIFI-NH2)
> 10000 | CCCCCCCCCCCCCCCC(=O)N[C@H](C(=O)N[C@@H](CCCNC(=N)N)C(=O)N1CCC[C@H]1C(=O)N[C@H](C(=O)N[C@@H](C)C(=O)N[C@@H](CC(N)=O)C(=O)N[C@@H](C)C(=O)N[C@@H](CCCNC(=N)N)C(=O)N[C@@H](CC(C)C)C(=O)N[C@@H](CCCNC(=N)N)C(=O)N[C@@H](CC(C)C)C(=O)N[C@@H](CCCNC(=N)N)C(=O)N[C@H](C(N)=O)C(C)C)C(C)C)C(C)C [Compound 85] (Palmitoyl-VRPVANARLRLRV-NH2)
1 to 500 | CCCCCCCCCCCCCCCC(=O)N[C@H](C(=O)N[C@H](C(=O)N[C@@H](Cc1ccccc1)C(=O)N[C@@H](CCCNC(=N)N)C(=O)N[C@@H](CO)C(=O)N[C@@H](CO)C(=O)N[C@@H](CCCNC(=N)N)C(=O)N[C@@H](CCC(=O)O)C(=O)N[C@@H](CCCCN)C(=O)N[C@@H](CCCNC(=N)N)C(=O)N[C@@H](CCCNC(=N)N)C(=O)N[C@@H](C)C(=O)N[C@@H](C)C(=O)N[C@@H](CC(=O)O)C(=O)N[C@H](C(=O)N[C@@H](Cc1ccccc1)C(=O)N[C@H](C(N)=O)[C@@H](C)CC)[C@@H](C)CC)C(C)C)[C@@H](C)O [Compound 32] (Palmitoyl-TVFRSSREKRRAADIFI-NH2)
1 to 500 | CCCCCCCCCCCCCCCC(=O)N[C@H](C(=O)N[C@H](C(=O)N[C@@H](Cc1ccccc1)C(=O)N[C@@H](CCCNC(=N)N)C(=O)N[C@@H](CO)C(=O)N[C@@H](C)C(=O)N[C@@H](CCCNC(=N)N)C(=O)N[C@@H](CCC(=O)O)C(=O)N[C@@H](CCCCN)C(=O)N[C@@H](CCCNC(=N)N)C(=O)N[C@@H](CCCNC(=N)N)C(=O)N[C@@H](CO)C(=O)N[C@@H](C)C(=O)N[C@@H](CC(=O)O)C(=O)N[C@H](C(=O)N[C@@H](Cc1ccccc1)C(=O)N[C@H](C(N)=O)[C@@H](C)CC)[C@@H](C)CC)C(C)C)[C@@H](C)O [Compound 28] (Palmitoyl-TVFRSAREKRRSADIFI-NH2)
> 10000 | CCCCCCCCCCCCCCCC(=O)N[C@H](C(=O)N[C@@H](CCCNC(=N)N)C(=O)N1CCC[C@H]1C(=O)N[C@H](C(=O)N[C@@H](C)C(=O)N[C@@H](CC(N)=O)C(=O)N[C@@H](C)C(=O)N[C@@H](CCCNC(=N)N)C(=O)N[C@@H](CC(C)C)C(=O)N[C@@H](CCCNC(=N)N)C(=O)N[C@@H](CC(C)C)C(=O)N[C@@H](CCCNC(=N)N)C(=O)N[C@H](C(=O)N[C@@H](CO)C(N)=O)C(C)C)C(C)C)C(C)C [Compound 86] (Palmitoyl-VRPVANARLRLRVS-NH2)
